From patent US20230174951A1, “PHENOL-RICH GRAPES” (THE STATE OF ISRAEL, MINISTRY OF AGRICULTURE & RURAL …, priority 2020, published 2023) come the findings set out here.

SMILES strings stand for the structures.

Data set [1] relates to AroG*+STS28 (Line 16) cells. The data set can be described thus: Effect of Phe and p-CA concentrations on cell growth. The data set is classed as cell-based, Vitis vinifera. Here is the method: The concentrations of Phe and p-CA chosen for the feeding experiments were those in which cell viability was not affected, but cell growth was slower. To compare the growth rate, the fresh Weight (FW) of the cells per ml growth media was measured at day 7 of growth. […] Even though the viability of the treated with 0.5-5 mM Phe and 0.1-0.3 mM p-CA was similar, their growth pattern differed with formation of larger clumps in the liquid media (FIG. 6C).

Data set [2] can be described thus: Water solubility.

With `N[C@@H](Cc1ccccc1)C(=O)O` [Phe, Phenylalanine], in data set [1] (1, 2 and 5 mM, day 7), the “weight of treated cells” value is “weighed significantly less”.
Regarding `O=C(O)/C=C/c1ccc(O)cc1` [p-Coumaric acid, p-coumaric acid], the water solubility result in data set [2] is “not water soluble”. Further, the cell growth result in data set [1] (0.3 mM, compared to cells in 0.2% ethanol) is “slower growth”.
